According to the supplement of paper PMC10307832:

Columns and labels:
Test in all cases: relative viability (nuclei count vs DMSO), 5 days (fraction); higher = more cells survive
Carfilzomib + Tozasertib = compound: CC(C)C[C@H](NC(=O)[C@H](CCc1ccccc1)NC(=O)CN1CCOCC1)C(=O)N[C@@H](Cc1ccccc1)C(=O)N[C@@H](CC(C)C)C(=O)[C@@]1(C)CO1 [Carfilzomib] + Cc1cc(Nc2cc(N3CCN(C)CC3)nc(Sc3ccc(NC(=O)C4CC4)cc3)n2)n[nH]1 [Tozasertib] (partner 0.1 µM)
Outline: (§1)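 Five library-drug doses in √10 steps were combined with a fixed anchor-drug dose, or a single drug was given alone, by pin tool to lung cancer cell lines in 1536-well plates the day after seeding. Nuclei were stained and counted after 5 days. Relative viability is the nuclei count in treated wells over that in vehicle wells, taken as the median of duplicate plates.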

Carfilzomib + Pemetrexed = compound: CC(C)C[C@H](NC(=O)[C@H](CCc1ccccc1)NC(=O)CN1CCOCC1)C(=O)N[C@@H](Cc1ccccc1)C(=O)N[C@@H](CC(C)C)C(=O)[C@@]1(C)CO1 [Carfilzomib] + Nc1nc2[nH]cc(CCc3ccc(C(=O)N[C@@H](CCC(=O)O)C(=O)O)cc3)c2c(=O)[nH]1 [Pemetrexed] (partner 0.2 µM)
Outline: as §1

Crizotinib + Palbociclib = compound: C[C@@H](Oc1cc(-c2cnn(C3CCNCC3)c2)cnc1N)c1c(Cl)ccc(F)c1Cl [Crizotinib] + CC(=O)c1c(C)c2cnc(Nc3ccc(N4CCNCC4)cn3)nc2n(C2CCCC2)c1=O [Palbociclib] (partner 0.5 µM)
Outline: as §1

Carfilzomib + Phenformin = compound: CC(C)C[C@H](NC(=O)[C@H](CCc1ccccc1)NC(=O)CN1CCOCC1)C(=O)N[C@@H](Cc1ccccc1)C(=O)N[C@@H](CC(C)C)C(=O)[C@@]1(C)CO1 [Carfilzomib] + N=C(N)NC(=N)NCCc1ccccc1 [Phenformin] (partner 250 µM)
Outline: as §1

Row | Cell Line | relative viability (Carfilzomib + Tozasertib; first compound 0.001 µM) | relative viability (Carfilzomib + Tozasertib; first compound 0.003162 µM) | relative viability (Carfilzomib + Tozasertib; first compound 0.01 µM) | relative viability (Carfilzomib + Tozasertib; first compound 0.03162 µM) | relative viability (Carfilzomib + Tozasertib; first compound 0.1 µM) | relative viability (Carfilzomib + Pemetrexed; first compound 0.001 µM) | relative viability (Carfilzomib + Pemetrexed; first compound 0.003162 µM) | relative viability (Carfilzomib + Pemetrexed; first compound 0.01 µM) | relative viability (Carfilzomib + Pemetrexed; first compound 0.03162 µM) | relative viability (Carfilzomib + Pemetrexed; first compound 0.1 µM) | relative viability (Crizotinib + Palbociclib; first compound 0.01 µM) | relative viability (Crizotinib + Palbociclib; first compound 0.03162 µM) | relative viability (Crizotinib + Palbociclib; first compound 0.1 µM) | relative viability (Crizotinib + Palbociclib; first compound 0.3162 µM) | relative viability (Crizotinib + Palbociclib; first compound 1 µM) | relative viability (Carfilzomib + Phenformin; first compound 0.001 µM) | relative viability (Carfilzomib + Phenformin; first compound 0.003162 µM) | relative viability (Carfilzomib + Phenformin; first compound 0.01 µM) | relative viability (Carfilzomib + Phenformin; first compound 0.03162 µM) | relative viability (Carfilzomib + Phenformin; first compound 0.1 µM)
1 | LOU-NH91 | 0.742 | 0.801 | 0.635 | 0.289 | 0.246 | 0.368 | 0.451 | 0.471 | 0.314 | 0.335 | 0.583 | 0.534 | 0.516 | 0.533 | 0.5 | 0.724 | 0.806 | 0.543 | 0.215 | 0.221
2 | LU99A | 0.282 | 0.286 | 0.326 | 0.306 | 0.123 | 0.191 | 0.163 | 0.18 | 0.214 | 0.188 | 0.411 | 0.407 | 0.384 | 0.42 | 0.357 | 0.921 | 0.806 | 0.721 | 0.757 | 0.263
3 | LXF-289 | 0.186 | 0.186 | 0.104 | 0.0498 | 0.0494 | 0.947 | 0.933 | 0.909 | 0.108 | 0.125 | 0.583 | 0.591 | 0.626 | 0.569 | 0.582 | 0.524 | 0.519 | 0.393 | 0.226 | 0.0577
4 | NCI-H23 | 0.382 | 0.428 | 0.376 | 0.122 | 0.13 | 0.532 | 0.666 | 0.508 | 0.165 | 0.169 | 0.343 | 0.504 | 0.53 | – | 0.536 | 0.772 | 0.684 | 0.762 | 0.36 | 0.134
5 | NCI-H322M | 0.473 | 0.52 | 0.556 | 0.433 | 0.337 | 0.592 | 0.637 | 0.64 | 0.657 | 0.421 | – | 0.486 | 0.465 | 0.53 | 0.447 | 0.77 | 0.84 | 0.827 | 0.494 | 0.306
6 | NCI-H358 | 0.0998 | 0.0949 | 0.127 | 0.057 | 0.0759 | 0.169 | 0.164 | 0.173 | 0.136 | 0.102 | 0.127 | 0.14 | 0.184 | 0.127 | 0.126 | 0.338 | 0.4 | 0.203 | 0.0604 | 0.0694
7 | NCI-H441 | 0.6 | 0.626 | 0.49 | 0.193 | 0.247 | 0.26 | 0.257 | 0.244 | 0.134 | 0.133 | 0.207 | 0.267 | 0.212 | 0.188 | 0.2 | 0.785 | 0.898 | 0.242 | 0.161 | 0.177
8 | NCI-H460 | 0.363 | 0.51 | 0.48 | 0.512 | 0.0337 | 0.0648 | 0.0611 | 0.0649 | 0.0671 | 0.0245 | 0.213 | 0.194 | 0.175 | 0.166 | 0.177 | 0.553 | 0.582 | 0.571 | 0.0312 | 0.0172
9 | NCI-H520 | 0.515 | 0.492 | 0.371 | 0.227 | 0.259 | 0.664 | 0.712 | 0.568 | 0.169 | 0.131 | 0.24 | 0.24 | 0.205 | 0.204 | 0.195 | 0.609 | 0.46 | 0.227 | 0.287 | 0.227
10 | NCI-H522 | 0.491 | 0.6 | 0.653 | 0.349 | 0.346 | 1.19 | 0.906 | 0.963 | 0.717 | 0.339 | 0.998 | 1.18 | 0.827 | 1.04 | 1.02 | 0.697 | 0.719 | 0.668 | 0.515 | 0.401
11 | NCI-H647 | 0.452 | 0.378 | 0.171 | 0.141 | 0.0292 | 0.193 | 0.179 | 0.126 | 0.0407 | 0.0343 | 0.358 | 0.421 | 0.368 | 0.404 | 0.526 | 0.485 | 0.667 | 0.237 | 0.0272 | 0.0185
12 | NCI-H650 | – | 0.9 | 0.745 | 0.588 | 0.157 | 0.954 | 1.04 | 1.27 | 0.781 | 0.137 | 0.346 | 0.32 | 0.352 | – | 0.375 | – | 0.536 | 0.451 | 0.345 | 0.148
13 | NCI-H661 | 0.367 | 0.313 | 0.364 | 0.373 | 0.255 | 0.925 | 0.948 | 0.902 | 0.903 | 0.415 | 0.376 | 0.425 | 0.44 | 0.435 | 0.423 | 0.268 | 0.272 | 0.272 | 0.248 | 0.215
14 | NCI-H838 | 0.273 | 0.276 | 0.298 | 0.31 | 0.116 | 0.268 | 0.254 | 0.246 | 0.209 | 0.136 | 0.178 | 0.248 | 0.225 | 0.239 | 0.236 | 0.66 | 0.865 | 0.537 | 0.122 | 0.13
15 | NCI-H1355 | 0.537 | 0.647 | 0.569 | 0.371 | 0.192 | 1.01 | 1.03 | 1.08 | 1 | 0.282 | 0.415 | 0.378 | 0.387 | 0.406 | 0.406 | 0.427 | 0.51 | 0.469 | 0.302 | 0.167
16 | NCI-H1395 | 0.746 | 0.743 | 0.696 | 0.505 | 0.304 | – | 0.873 | 0.756 | 0.33 | 0.287 | 0.608 | 0.593 | 0.625 | 0.596 | 0.643 | 0.448 | 0.457 | 0.441 | 0.298 | 0.314
17 | NCI-H1437 | 0.403 | 0.424 | 0.4 | 0.433 | 0.252 | 0.282 | 0.352 | 0.334 | 0.273 | 0.286 | 0.283 | 0.328 | 0.302 | 0.309 | 0.356 | 0.306 | 0.346 | 0.301 | 0.249 | 0.123
18 | NCI-H1650 | 0.42 | 0.392 | 0.255 | 0.139 | 0.204 | 0.343 | 0.403 | 0.312 | 0.154 | 0.166 | 0.26 | 0.359 | 0.379 | 0.391 | 0.319 | 0.421 | 0.254 | 0.232 | 0.174 | 0.156
19 | NCI-H1651 | 0.626 | 0.805 | 0.559 | 0.126 | 0.0943 | 0.561 | 0.649 | 0.536 | 0.197 | 0.082 | 0.507 | 0.544 | 0.505 | 0.534 | 0.529 | 0.33 | 0.342 | 0.173 | 0.133 | 0.0929
20 | NCI-H1666 | 0.667 | 0.551 | 0.58 | 0.523 | 0.312 | 0.896 | 0.914 | 0.898 | 0.799 | 0.562 | 0.678 | 0.685 | 0.712 | 0.625 | 0.623 | 0.594 | 0.569 | 0.528 | 0.428 | 0.278
21 | NCI-H1734 | 0.275 | 0.289 | 0.266 | 0.153 | 0.0994 | 0.398 | 0.436 | 0.432 | 0.366 | 0.19 | 0.346 | 0.327 | 0.327 | – | 0.341 | 0.375 | 0.404 | 0.331 | 0.18 | 0.104
22 | NCI-H1755 | 0.612 | 0.505 | 0.571 | 0.609 | 0.269 | 0.42 | 0.497 | 0.475 | 0.37 | 0.311 | 0.465 | 0.445 | 0.445 | 0.457 | 0.451 | 0.623 | 0.664 | 0.66 | 0.592 | 0.238
23 | NCI-H1915 | 0.422 | 0.458 | 0.465 | 0.229 | 0.0764 | 0.559 | 0.516 | 0.578 | 0.59 | 0.0792 | 0.517 | 0.525 | 0.488 | 0.51 | 0.476 | 0.367 | 0.403 | 0.359 | 0.255 | 0.0555
24 | NCI-H1944 | 0.248 | 0.236 | 0.253 | 0.265 | 0.16 | 0.615 | 0.664 | 0.628 | 0.563 | 0.242 | 0.284 | 0.315 | 0.307 | 0.345 | 0.344 | 0.187 | 0.2 | 0.202 | 0.204 | 0.139
25 | NCI-H1975 | – | 0.766 | 0.371 | 0.0617 | 0.0846 | 0.281 | 0.31 | 0.224 | 0.123 | 0.115 | 0.594 | 0.792 | 0.554 | 0.475 | 0.493 | – | 0.367 | 0.197 | 0.0933 | 0.0936
26 | NCI-H1993 | 0.563 | 0.571 | 0.59 | 0.597 | 0.423 | 0.593 | 0.502 | 0.574 | 0.518 | 0.351 | 0.641 | 0.67 | 0.666 | 0.535 | 0.426 | 0.482 | 0.498 | 0.42 | 0.477 | 0.45
27 | NCI-H2009 | 0.781 | 0.871 | 0.723 | 0.748 | 0.0938 | 1.06 | 1.05 | 1.04 | 0.868 | 0.124 | 0.185 | 0.208 | 0.249 | 0.189 | 0.193 | 0.514 | 0.564 | 0.449 | 0.155 | 0.101
